Measured values reported in patent US10898481B2 (priority 2018, dated 2021).
Like-named read-outs stand apart in the source and are kept apart here.

Assays:
[1] = target: hADORA1/CHO (hA1 expressing) cells (Homo sapiens (Human), UniProt P30542); assay: cell-based; details: 10 μM adenosine
hA2a/CHO = hA2a/CHO (Homo sapiens (Human), UniProt P29274); assay: cAMP inhibition assay in hA2a/CHO cells, 10 μM adenosine; format: cell-based;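 note: compounds added to cells 30 min ahead of adenosine, then a further 30 min at 37 °C with adenosine before cAMP detection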
hA2b/CHO = hA2b/CHO (Homo sapiens (Human), UniProt P29275); assay: cAMP inhibition assay in hA2b/CHO cells, 10 μM adenosine; format: cell-based;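 note: cells exposed to compound 30 min at 37 °C, then stimulated with adenosine a further 30 min, cAMP read after 60 min at room temperature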
hA3/CHO = hA3/CHO (Homo sapiens (Human), UniProt P0DMS8); assay: cell-based
Experimental: hA2a/CHO, hA2b/CHO, hA3/CHO and mA2a/CHO (Genscript) were plated at 5×10^3 cells/well into 384-well polystyrene plates at the day of experiment. Compounds were pre-incubated with cells for 30 min at 37° C., 5% CO2. Then 10 μM adenosine was added to the cells and incubated for 30 min at 37° C., 5% CO2. Detection reagent (CISBIO) was added and the plates were incubated for 60 min at room temperature. The signal was captured by Envision.

mA2a/CHO = mA2a/CHO (Mus musculus (Mouse), UniProt Q60613); assay: cAMP inhibition assay in mA2a/CHO cells, 10 μM adenosine; format: cell-based;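 note: compounds preincubated 30 min at 37 °C before the adenosine challenge, then 30 min further stimulation, readout after 60 min detection reagent incubation at room temperature in 384-well plates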
hA2a = hA2a (Homo sapiens (Human), UniProt P29274); assay: Radioligand binding to hA2a membrane with [3H]-CGS21680
Excerpt: The empty boxes in the tables below indicate data not collected yet.

[2] = FLIPR inhibition, read-out: cAMP & FLIPR IC50 (nM) hA1
[3] = read-out: cAMP & FLIPR IC50 (nM) hA2a
[4] = read-out: cAMP & FLIPR IC50 (nM) hA2b
[5] = read-out: cAMP & FLIPR IC50 (nM) mA2a
[6] = read-out: Binding Affinity (IC50 nM) hA2a
[7] = Binding Affinity (IC50 nM) hA2a

mA2a/CHO, sequence (Q60613 whole entry): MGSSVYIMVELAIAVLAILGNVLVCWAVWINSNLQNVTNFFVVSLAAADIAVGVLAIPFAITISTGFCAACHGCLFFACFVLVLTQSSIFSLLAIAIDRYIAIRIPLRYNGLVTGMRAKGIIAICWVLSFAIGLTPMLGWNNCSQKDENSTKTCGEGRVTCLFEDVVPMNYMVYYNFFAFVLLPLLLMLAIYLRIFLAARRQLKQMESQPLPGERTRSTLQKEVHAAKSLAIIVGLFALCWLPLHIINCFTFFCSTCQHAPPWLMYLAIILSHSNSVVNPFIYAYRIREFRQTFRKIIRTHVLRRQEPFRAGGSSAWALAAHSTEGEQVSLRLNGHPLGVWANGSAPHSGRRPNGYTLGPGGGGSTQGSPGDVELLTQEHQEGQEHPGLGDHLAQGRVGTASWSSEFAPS
hA2b/CHO, sequence (P29275 whole entry): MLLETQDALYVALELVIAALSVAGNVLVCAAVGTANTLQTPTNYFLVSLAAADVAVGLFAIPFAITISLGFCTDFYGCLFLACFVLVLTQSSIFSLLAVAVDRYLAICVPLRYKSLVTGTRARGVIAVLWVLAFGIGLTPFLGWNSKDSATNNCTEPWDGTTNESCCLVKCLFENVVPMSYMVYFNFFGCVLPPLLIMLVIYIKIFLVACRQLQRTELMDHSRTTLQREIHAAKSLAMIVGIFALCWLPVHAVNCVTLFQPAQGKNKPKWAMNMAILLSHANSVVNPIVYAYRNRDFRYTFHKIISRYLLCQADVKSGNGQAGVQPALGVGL
hA3/CHO, sequence (P0DMS8 whole entry): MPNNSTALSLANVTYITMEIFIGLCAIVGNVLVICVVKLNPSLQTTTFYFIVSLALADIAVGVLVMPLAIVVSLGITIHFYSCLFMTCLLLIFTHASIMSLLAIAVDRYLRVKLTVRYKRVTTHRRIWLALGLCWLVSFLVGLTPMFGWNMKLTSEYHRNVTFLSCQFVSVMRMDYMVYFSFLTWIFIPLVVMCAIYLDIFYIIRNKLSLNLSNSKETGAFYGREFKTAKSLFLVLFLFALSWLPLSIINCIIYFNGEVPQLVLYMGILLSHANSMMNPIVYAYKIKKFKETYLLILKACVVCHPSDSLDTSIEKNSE
hA2a/CHO, sequence (P29274 whole entry): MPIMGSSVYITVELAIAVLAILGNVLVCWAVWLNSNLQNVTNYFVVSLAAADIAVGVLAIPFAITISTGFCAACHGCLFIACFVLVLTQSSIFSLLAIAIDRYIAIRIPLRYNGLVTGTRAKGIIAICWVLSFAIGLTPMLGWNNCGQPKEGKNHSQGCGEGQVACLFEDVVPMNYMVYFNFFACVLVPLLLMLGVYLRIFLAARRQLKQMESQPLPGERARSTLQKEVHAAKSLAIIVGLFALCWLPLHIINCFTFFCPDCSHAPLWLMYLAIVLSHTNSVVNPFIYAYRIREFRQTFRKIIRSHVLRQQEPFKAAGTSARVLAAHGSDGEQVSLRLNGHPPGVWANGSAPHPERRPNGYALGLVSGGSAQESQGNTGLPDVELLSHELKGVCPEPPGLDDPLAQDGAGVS
hA2a, sequence (P29274 whole entry): as above
hADORA1/CHO (hA1 expressing) cells, sequence (P30542 whole entry): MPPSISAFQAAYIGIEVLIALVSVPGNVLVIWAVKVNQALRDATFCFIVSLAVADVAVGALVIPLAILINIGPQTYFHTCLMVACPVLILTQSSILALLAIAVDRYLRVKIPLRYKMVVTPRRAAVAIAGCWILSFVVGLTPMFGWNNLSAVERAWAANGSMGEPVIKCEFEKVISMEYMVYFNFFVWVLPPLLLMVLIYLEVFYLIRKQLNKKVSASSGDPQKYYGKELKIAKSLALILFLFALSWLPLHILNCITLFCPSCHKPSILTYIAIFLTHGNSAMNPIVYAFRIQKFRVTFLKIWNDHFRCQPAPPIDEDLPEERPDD

Cn1cc(-c2nc(C(=O)NCc3cccc(N4CCCC4)n3)c(N)nc2-c2ncco2)ccc1=O [Example 28, 3-amino-6-(1-methyl-6-oxo-1,6-dihydropyridin-3-yl)-5-(1,3-oxazol-2-yl)-N-[[6-(pyrrolidin-1-yl)pyridin-2-yl]methyl]pyrazine-2-carboxamide]
IC50 [1, 2]: 4900 nM | IC50 (hA2a/CHO; [3]): 129 nM | IC50 (hA2b/CHO; [4]): ≥ 10000 nM | IC50 (hA3/CHO): ≥ 10000 nM | IC50 (mA2a/CHO; [5]): 160 nM

Cc1cc(-c2nc(C(=O)NCc3cccc(N(C)C)n3)c(N)nc2-c2ccc(F)cc2)ccn1 [Example 12, 3-amino-N-((6-(dimethylamino)pyridin-2-yl)methyl)-5-(4-fluorophenyl)-6-(2-methylpyridin-4-yl)pyrazine-2-carboxamide]
IC50 [1, 2]: 414 nM | IC50 (hA2a/CHO; [3]): 36 nM | IC50 (hA2b/CHO; [4]): 9030 nM | IC50 (hA3/CHO): 6940 nM | IC50 (mA2a/CHO; [5]): 678 nM

CN(C)c1ccnc(CNC(=O)c2nc(-c3ccc(=O)n(C)c3)c(-c3ncco3)nc2N)n1 [Example 25, 3-amino-N-((4-(dimethylamino)pyrimidin-2-yl)methyl)-6-(1-methyl-6-oxo-1,6-dihydropyridin-3-yl)-5-(oxazol-2-yl)pyrazine-2-carboxamide]
IC50 [1, 2]: 3300 nM | IC50 (hA2a/CHO; [3]): 125 nM | IC50 (hA2b/CHO; [4]): ≥ 10000 nM | IC50 (hA3/CHO): ≥ 10000 nM | IC50 (mA2a/CHO; [5]): 242 nM

CC(NC(=O)c1nc(-c2ccc(=O)n(C)c2)c(-c2ncco2)nc1N)c1c(F)cccc1F (centres unmarked) [Example 20, 3-amino-N-(1-(2,6-difluorophenyl)ethyl)-6-(1-methyl-6-oxo-1,6-dihydropyridin-3-yl)-5-(oxazol-2-yl) pyrazine-2-carboxamide]
IC50 [1, 2]: 6610 nM | IC50 (hA2a/CHO; [3]): 41 nM | IC50 (hA2b/CHO; [4]): 3600 nM | IC50 (hA3/CHO): ≥ 10000 nM | IC50 (mA2a/CHO; [5]): 170 nM

Cn1cc(-c2nc(C(=O)NCc3c(F)cccc3F)c(N)nc2-n2nccn2)ccc1=O [Example 35, 3-amino-N-(2,6-difluorobenzyl)-6-(1-methyl-6-oxo-1,6-dihydropyridin-3-yl)-5-(2H-1,2,3-triazol-2-yl)pyrazine-2-carboxamide]
IC50 (hA2a; [6]): 3.2 nM | IC50 [1, 2]: 112 nM | IC50 (hA2a/CHO; [3]): 15 nM | IC50 (hA2b/CHO; [4]): 203 nM | IC50 (hA3/CHO): ≥ 10000 nM | IC50 (mA2a/CHO; [5]): 43 nM

Nc1nc(-c2ncco2)c(-c2ccc(=O)n(CCO)c2)nc1C(=O)NCc1c(F)cccc1F [Example 41, 3-amino-N-(2,6-difluorobenzyl)-6-(1-(2-hydroxyethyl)-6-oxo-1,6-dihydropyridin-3-yl)-5-(oxazol-2-yl)pyrazine-2-carboxamide]
IC50 (hA2a; [6]): 3.3 nM | IC50 [1, 2]: 123 nM | IC50 (hA2a/CHO; [3]): 1.6 nM | IC50 (hA2b/CHO; [4]): 38 nM | IC50 (mA2a/CHO; [5]): 13 nM

Nc1nc(-c2ncco2)c(-c2ccc(=O)n(C(F)F)c2)nc1C(=O)NCc1ncccc1F [Example 31, 3-amino-6-[1-(difluoromethyl)-6-oxo-1,6-dihydropyridin-3-yl]-N-[(3-fluoropyridin-2-yl)methyl]-5-(1,3-oxazol-2-yl)pyrazine-2-carboxamide]
IC50 [1, 2]: 35 nM | IC50 (hA2a/CHO; [3]): 34 nM | IC50 (hA2b/CHO; [4]): 164 nM | IC50 (hA3/CHO): ≥ 10000 nM | IC50 (mA2a/CHO; [5]): 75 nM

Nc1nc(-c2ncco2)c(-c2ccc3nccn3c2)nc1C(=O)NCc1c(F)cccc1F [Example 32, 3-amino-N-[(2,6-difluorophenyl)methyl]-6-[imidazo[1,2-a]pyridin-6-yl]-5-(1,3-oxazol-2-yl)pyrazine-2-carboxamide]
IC50 [1, 2]: 494 nM | IC50 (hA2a/CHO; [3]): 0.2 nM | IC50 (hA2b/CHO; [4]): 3 nM | IC50 (hA3/CHO): ≥ 10000 nM | IC50 (mA2a/CHO; [5]): 2 nM

Cn1cc(-c2nc(C(=O)NCc3cccc(N4CCC4)n3)c(N)nc2-c2ncco2)ccc1=O [Example 26, 3-amino-N-[[6-(azetidin-1-yl)pyridin-2-yl]methyl]-6-(1-methyl-6-oxo-1,6-dihydropyridin-3-yl)-5-(1,3-oxazol-2-yl)pyrazine-2-carboxamide]
IC50 [1, 2]: 725 nM | IC50 (hA2a/CHO; [3]): 108 nM | IC50 (hA2b/CHO; [4]): ≥ 10000 nM | IC50 (hA3/CHO): ≥ 10000 nM | IC50 (mA2a/CHO; [5]): 309 nM

CN(C)c1cccc(CNC(=O)c2nc(-c3ccc(=O)n(C)c3)c(-c3ncco3)nc2N)c1F [Example 33, 3-amino-N-(3-(dimethylamino)-2-fluorobenzyl)-6-(1-methyl-6-oxo-1,6-dihydropyridin-3-yl)-5-(oxazol-2-yl)pyrazine-2-carboxamide]
IC50 [1, 2]: 3030 nM | IC50 (hA2a/CHO; [3]): 56 nM | IC50 (hA2b/CHO; [4]): ≥ 10000 nM | IC50 (hA3/CHO): ≥ 10000 nM | IC50 (mA2a/CHO; [5]): 123 nM

Cn1cc(-c2nc(C(=O)NCc3ncccc3C(F)(F)F)c(N)nc2-c2ncco2)ccc1=O [Example 11, 3-amino-6-(1-methyl-6-oxo-1,6-dihydropyridin-3-yl)-5-(oxazol-2-yl)-N-((3-(trifluoromethyl)pyridin-2-yl)methyl)pyrazine-2-carboxamide]
IC50 [1, 2]: 4490 nM | IC50 (hA2a/CHO; [3]): 89 nM | IC50 (hA2b/CHO; [4]): 1010 nM | IC50 (hA3/CHO): ≥ 10000 nM | IC50 (mA2a/CHO; [5]): 87 nM

Cn1nc(-c2nc(C(=O)NCc3c(F)cccc3F)c(N)nc2-c2ncco2)ccc1=O [Example 37, 3-amino-N-(2,6-difluorobenzyl)-6-(1-methyl-6-oxo-1,6-dihydropyridazin-3-yl)-5-(oxazol-2-yl)pyrazine-2-carboxamide]
IC50 (hA2a; [6]): 1 nM | IC50 [1, 2]: 28 nM | IC50 (hA2a/CHO; [3]): 9.3 nM | IC50 (hA2b/CHO; [4]): 95 nM | IC50 (mA2a/CHO; [5]): 56 nM

Cc1cc(-c2nc(C(=O)NCc3cccc(N(C)C)n3)c(N)nc2-c2ccc(F)cc2)cc(C)n1 [Example 9, 3-amino-N-[[6-(dimethylamino)pyridin-2-yl]methyl]-6-(2,6-dimethylpyridin-4-yl)-5-(4-fluorophenyl)pyrazine-2-carboxamide]
IC50 [1, 2]: 1000 nM | IC50 (hA2a/CHO; [3]): 5.4 nM | IC50 (hA2b/CHO; [4]): ≥ 10000 nM | IC50 (hA3/CHO): ≥ 10000 nM | IC50 (mA2a/CHO; [5]): 25 nM

CC(NC(=O)c1nc(-c2ccc(=O)n(C)c2)c(-c2ncco2)nc1N)c1c(F)cccc1F (single isomer, unassigned) [Example 40, 3-amino-N-(1-(2,6-difluorophenyl)ethyl)-6-(1-methyl-6-oxo-1,6-dihydropyridin-3-yl)-5-(oxazol-2-yl)pyrazine-2-carboxamide]
IC50 (hA2a; [7]): 5.2 nM | IC50 [1, 2]: 10000 nM | IC50 (hA2a/CHO; [3]): 51 nM | IC50 (hA2b/CHO; [4]): 1350 nM | IC50 (mA2a/CHO; [5]): 211 nM

Cc1cnc2ccc(-c3nc(C(=O)NCC4CCO4)c(N)nc3-c3ncco3)cn12 (single isomer, unassigned) [Example 135]
IC50 (hA2a; [7]): 2 nM | IC50 (hA2a/CHO; [3]): 2.3 nM | IC50 (hA2b/CHO; [4]): 182 nM | IC50 (mA2a/CHO; [5]): 23 nM

CN(C)c1cccc(CNC(=O)c2nc(-c3ccc(=O)n(C)c3)c(-c3ccc(F)cc3)nc2N)n1 [Example 13, 3-amino-N-[[6-(dimethylamino)pyridin-2-yl]methyl]-5-(4-fluorophenyl)-6-(1-methyl-6-oxo-1,6-dihydropyridin-3-yl)pyrazine-2-carboxamide]
IC50 [1, 2]: 72 nM | IC50 (hA2a/CHO; [3]): 6.1 nM | IC50 (hA2b/CHO; [4]): 4640 nM | IC50 (hA3/CHO): ≥ 10000 nM | IC50 (mA2a/CHO; [5]): 51 nM

Cc1cnc2ccc(-c3nc(C(=O)NCC4CCO4)c(N)nc3-c3ncco3)cn12 (single isomer, unassigned) [Example 134]
IC50 (hA2a; [7]): 5.5 nM | IC50 (hA2a/CHO; [3]): 4.3 nM | IC50 (hA2b/CHO; [4]): 314 nM | IC50 (mA2a/CHO; [5]): 77 nM

CN(C)c1ccc(F)c(CNC(=O)c2nc(-c3ccc(=O)n(C)c3)c(-c3ncco3)nc2N)c1 [Example 27, 3-amino-N-(5-(dimethylamino)-2-fluorobenzyl)-6-(1-methyl-6-oxo-1,6-dihydropyridin-3-yl)-5-(oxazol-2-yl)pyrazine-2-carboxamide]
IC50 [1, 2]: 1770 nM | IC50 (hA2a/CHO; [3]): 60 nM | IC50 (hA2b/CHO; [4]): ≥ 10000 nM | IC50 (hA3/CHO): ≥ 10000 nM | IC50 (mA2a/CHO; [5]): 177 nM

Cn1cc(-c2nc(C(=O)NCc3ncccc3OC(F)(F)F)c(N)nc2-c2ncco2)ccc1=O [Example 30, 3-amino-6-(1-methyl-6-oxo-1,6-dihydropyridin-3-yl)-5-(1,3-oxazol-2-yl)-N-[[3-(trifluoromethoxy)pyridin-2-yl]methyl]pyrazine-2-carboxamide]
IC50 [1, 2]: 214 nM | IC50 (hA2a/CHO; [3]): 45 nM | IC50 (hA2b/CHO; [4]): 603 nM | IC50 (hA3/CHO): ≥ 10000 nM | IC50 (mA2a/CHO; [5]): 47 nM

Cc1cc(-c2nc(C(=O)NCc3c(F)cccc3F)c(N)nc2-c2ncco2)ccn1 [Example 10, 3-amino-N-(2,6-difluorobenzyl)-6-(2-methylpyridin-4-yl)-5-(oxazol-2-yl) pyrazine-2-carboxamide]
IC50 [1, 2]: 58 nM | IC50 (hA2a/CHO; [3]): 17 nM | IC50 (hA2b/CHO; [4]): 17 nM | IC50 (hA3/CHO): ≥ 10000 nM | IC50 (mA2a/CHO; [5]): 41 nM

CN(C)CCOc1cccnc1CNC(=O)c1nc(-c2ccc3ncn(C)c3c2)c(-c2ccc(F)cc2)nc1N [Example 116, 3-amino-N-([3-[2-(dimethylamino)ethoxy]pyridin-2-yl]methyl)-5-(4-fluorophenyl)-6-(1-methyl-1H-1,3-benzodiazol-6-yl)pyrazine-2-carboxamide]
IC50 ([1]; cAMP & FLIPR IC50 (nM) hA1, FLIPR inhibition): 61 nM | IC50 (hA2a/CHO; cAMP & FLIPR IC50 (nM) hA2a): 9.6 nM | IC50 (hA2b/CHO; cAMP & FLIPR IC50 (nM) hA2b): 6020 nM | IC50 (mA2a/CHO; cAMP & FLIPR IC50 (nM) mA2a): 17 nM

Cc1cnc2ccc(-c3nc(C(=O)NCC4CCCCO4)c(N)nc3-c3ncco3)cn12 (single isomer, unassigned; isomer 1) [Example 165, 3-amino-6-(3-methylimidazo[1,2-a]pyridin-6-yl)-5-(oxazol-2-yl)-N-((tetrahydro-2H-pyran-2-yl)methyl) pyrazine-2-carboxamide (isomer 1)]
IC50 [1, 2]: 207 nM | IC50 (hA2a/CHO; [3]): 0.24 nM | IC50 (hA2b/CHO; [4]): 73 nM | IC50 (mA2a/CHO; [5]): 1.42 nM
